Results published in patent publication US20230078764A1 (Yumanity Therapeutics, Inc., priority 2019, published 2023).
Read-outs that look alike come from different tables or passages of the source.

What was measured:
[1] = target: T1, human SCD5 (Homo sapiens, UniProt Q86SK9); test: Growth inhibition of yeast strain expressing human SCD5 as sole desaturase (OLE1 deleted), OD600 readout; assay type: cell-based
T1 construct: expressed in transfected cells; host or cells: yeast strain with OLE1 deleted, plasmid-borne human SCD5 (selected in SD-Ura)
T1 sequence (Q86SK9 1-330): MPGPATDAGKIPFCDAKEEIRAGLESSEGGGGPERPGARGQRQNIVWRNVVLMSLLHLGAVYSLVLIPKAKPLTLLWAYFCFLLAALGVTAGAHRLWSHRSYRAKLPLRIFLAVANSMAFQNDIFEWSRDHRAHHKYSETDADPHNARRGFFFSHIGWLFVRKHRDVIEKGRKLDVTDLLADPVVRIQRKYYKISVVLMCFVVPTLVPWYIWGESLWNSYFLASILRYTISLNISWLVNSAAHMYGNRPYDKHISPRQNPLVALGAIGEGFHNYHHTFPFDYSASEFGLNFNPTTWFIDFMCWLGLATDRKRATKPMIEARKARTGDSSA

[2] = target: T2, human SCD1 (Homo sapiens, UniProt O00767); test: Growth inhibition of yeast strain expressing human SCD1 as sole desaturase (OLE1 deleted), OD600 readout; assay type: cell-based
T2 construct: expressed in transfected cells; host or cells: yeast strain with OLE1 deleted, plasmid-borne human SCD1 (selected in SD-Ura)
T2 sequence (O00767 1-359): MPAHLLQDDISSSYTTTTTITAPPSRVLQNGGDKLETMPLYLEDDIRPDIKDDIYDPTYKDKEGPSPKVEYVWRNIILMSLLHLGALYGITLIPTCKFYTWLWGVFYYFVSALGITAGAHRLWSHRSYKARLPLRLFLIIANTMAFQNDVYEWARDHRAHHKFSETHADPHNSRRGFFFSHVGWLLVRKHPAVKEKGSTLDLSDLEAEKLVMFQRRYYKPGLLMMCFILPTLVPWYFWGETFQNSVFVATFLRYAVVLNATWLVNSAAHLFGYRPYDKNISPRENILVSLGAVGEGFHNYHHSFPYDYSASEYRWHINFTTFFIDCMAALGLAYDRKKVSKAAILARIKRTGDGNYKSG

[3] = yeast strain expressing human SCD5 as sole desaturase, growth (OD600) after 40 h at 30° C., read-out: SCD5 IC50
[4] = yeast strain expressing human SCD1 as sole desaturase, growth (OD600) after 40 h at 30° C., read-out: SCD1 IC50

SMILES | IC50 [1, 3] [nM] | IC50 [2, 4] [nM] | IC50 ([1]; SCD5 IC50) [nM] | IC50 ([2]; SCD1 IC50) [nM]
O=C(Nc1ccc(Cc2cccc(F)c2)cn1)c1ccn(C2CC2)n1 [Compound 285] | 1430 | 9410 | – | –
CN1N=C(C(=O)Nc2ncc(Cc3cccnc3)s2)CCC1=O [Compound 398] | > 45000 | > 45000 | – | –
O=C(Nc1ccc(Cc2cccc(F)c2)cn1)c1cnc2nsnc2c1 [Compound 358] | 170 | 6050 | – | –
Cn1cc(C(=O)Nc2ccc(OCc3cccc(Cl)c3)cn2)ccc1=O [Compound 361] | 2630 | > 45000 | – | –
Cn1cc(C(=O)Nc2ccc(Cc3c(F)cccc3F)cn2)ccc1=O [Compound 566] | 5600 | > 45000 | – | –
COc1ncc(C(=O)Nc2ccc(Cc3cccc(Cl)c3)cn2)cn1 [Compound 649] | 480 | 1400 | – | –
Cn1nc(C(=O)Nc2ccc(Cc3cccc(F)c3)cn2)cc1O [Compound 106, N-(5-(3-fluorobenzyl)pyridin-2-yl)-5-hydroxy-1-methyl-1H-pyrazole-3-carboxamide] | 1240 | > 45000 | – | –
CCCn1nc(C(=O)Nc2ccc(Cc3cccc(Cl)c3)nn2)ccc1=O [Compound 257] | 4360 | > 45000 | – | –
CN1N=C(C(=O)Nc2ccc(Cc3ccc(Cl)c(Cl)c3)cn2)CCC1=O [Example 20, N-(5-(3,4-dichlorobenzyl)pyridin-2-yl)-1-methyl-6-oxo-1,4,5,6-tetrahydropyridazine-3-carboxamide] | 30 | 220 | – | –
Cc1nccc(C(=O)Nc2ccc(Cc3cccc(F)c3)cn2)n1 [Compound 144, N-(5-(3-fluorobenzyl)pyridin-2-yl)-2-methylpyrimidine-4-carboxamide] | 10 | 10 | – | –
CN1N=C(C(=O)Nc2ccc(Cc3ccc(Cl)c(Cl)c3)nn2)CCC1=O [Compound 188, N-(6-(3,4-dichlorobenzyl)pyridazin-3-yl)-1-methyl-6-oxo-1,4,5,6-tetrahydropyridazine-3-carboxamide] | 190 | 4400 | – | –
Cn1nc(C(=O)Nc2ccc(Cc3ccc(F)c(C(F)F)c3)cn2)ccc1=O [Compound 575] | 10 | 370 | – | –
Cn1cc(C(=O)N[C@H]2CC[C@H](Cc3cccc(Cl)c3)CC2)ccc1=O [Compound 336] | 4270 | > 45000 | – | –
Cn1cc(C(=O)Nc2ccc(CC3CCCCC3)cn2)ccc1=O [Compound 65, N-(5-(cyclohexylmethyl)pyridin-2-yl)-1-methyl-6-oxo-1,6-dihydropyridine-3-carboxamide] | – | – | 140 | 1210
CC(C)c1ccc(Cc2ccc(NC(=O)C3=NN(C)C(=O)CC3)nc2)cc1 [Compound 383] | > 45000 | > 45000 | – | –
Cn1cc(NC(=O)c2ccc(Cc3cccc(Cl)c3)cn2)ccc1=O [Compound 57, 5-(3-chlorobenzyl)-N-(1-methyl-6-oxo-1,6-dihydropyridin-3-yl)picolinamide] | 10 | 560 | – | –
O=C(Nc1ccc(Cc2ccc(F)c(F)c2)cn1)c1ncc(Br)cn1 [Compound 518] | 1700 | > 45000 | – | –
O=C(Nc1ccc(Cc2cccc(Cl)c2)cn1)c1ccc(C(F)F)nc1 [Compound 295] | 340 | 22500 | – | –
Cn1cc(C(=O)Nc2ccc(Cc3cc(F)cc(Cl)c3)cn2)n(C)c1=O [Compound 668] | 10 | 10 | – | –
Cc1nccc(C(=O)Nc2ccc(Cc3ccc(F)c(Cl)c3)cn2)n1 [Compound 244] | 10 | 10 | – | –
CN1N=C(C(=O)Nc2nc(Cc3ccc4ccccc4n3)cs2)CCC1=O [Compound 422] | > 45000 | > 45000 | – | –
O=C(Nc1ccc(C=C2CCOCC2)cn1)c1ccc(CO)nc1 [Compound 637] | 8100 | 12000 | – | –

SMILES | IC50 [1, 3] [nM] | IC50 [2, 4] [nM] | IC50 ([1]; SCD5 IC50) [nM] | IC50 ([2]; SCD1 IC50) [nM]
Cn1nccc(C(=O)Nc2ccc(Cc3ccc(F)c(F)c3)cn2)c1=O [Compound 547] | 10 | 240 | – | –
N#Cc1nc(C(=O)Nc2ccc(Cc3cc(F)cc(F)c3)cn2)co1 [Compound 683] | 3900 | 8100 | – | –
O=C(NNC(=O)C(F)(F)F)C(=O)Nc1ccc(Cc2cccc(Cl)c2)cn1 [Compound 682] | 200 | 100 | – | –
CN1N=C(C(=O)Nc2ncc(Oc3ccccc3Cl)s2)CCC1=O [Compound 416] | > 45000 | > 45000 | – | –
Cn1cc(C(=O)Nc2ccc(Cc3cccc(F)c3)nn2)ccc1=O [Compound 176, N-(6-(3-fluorobenzyl)pyridazin-3-yl)-1-methyl-6-oxo-1,6-dihydropyridine-3-carboxamide] | 2660 | > 45000 | – | –
COc1cc(Cc2ccc(NC(=O)c3cnc(Cl)cn3)nc2)ccc1F [Compound 634] | 280 | > 45000 | – | –
Cn1cc(NC(=O)c2ccc(COc3ccccc3)cn2)ccc1=O [Compound 569] | 1200 | > 45000 | – | –
CN1N=C(C(=O)Nc2ccc(COc3ccc(F)c(F)c3)cn2)CCC1=O [Compound 598] | 150 | 39000 | – | –
Cn1nc(C(=O)Nc2ccc(Cc3cccc(C#N)c3F)cn2)ccc1=O [Compound 614] | 2500 | > 45000 | – | –
N#Cc1ncc(C(=O)Nc2ccc(Cc3ccc(F)c(F)c3)cn2)cn1 [Compound 525] | 550 | > 45000 | – | –
CN1N=C(C(=O)Nc2ccc(Cc3cccc(F)c3)s2)CCC1=O [Compound 343] | 3420 | 3140 | – | –
Cc1nccc(C(=O)Nc2ccc(Cc3ccc(F)c(F)c3)cn2)n1 [Compound 485] | 21 | 210 | – | –
CN1N=C(C(=O)Nc2ccc(Cc3ccc(Cl)c(F)c3)cn2)CCC1=O [Compound 11, N-(5-(4-chloro-3-fluorobenzyl)pyridin-2-yl)-1-methyl-6-oxo-1,4,5,6-tetrahydropyridazine-3-carboxamide] | 80 | 2740 | – | –
C=Cc1cnc(C(=O)Nc2ccc(Cc3ccc(F)c(F)c3)cn2)nc1 [Compound 568] | 880 | 3900 | – | –
O=C(Nc1ccc(Cc2cccc(F)c2)cn1)c1cc(CO)ccn1 [Compound 497] | 10 | 10 | – | –
CCn1cc(C(=O)Nc2ccc(Cc3cc(F)cc(OC)c3)cn2)ccc1=O [Compound 78, 1-ethyl-N-(5-(3-fluoro-5-methoxybenzyl)pyridin-2-yl)-6-oxo-1,6-dihydropyridine-3-carboxamide] | 640 | > 45000 | – | –
O=C(Nc1ccc(COc2ccc(F)c(Cl)c2)cn1)c1ccc(CO)nc1 [Compound 293] | 40 | 80 | – | –
O=C(O)c1cnc(C(=O)Nc2ccc(Cc3ccc(F)c(F)c3)cn2)cn1 [Compound 554] | 8800 | 3200 | – | –
Cn1nc(C(=O)Nc2ccc(OCc3cc(F)cc(C#N)c3)cn2)ccc1=O [Compound 441] | > 45000 | > 45000 | – | –
Cn1c(C(=O)Nc2ccc(Cc3ccc(F)c(F)c3)cn2)coc1=O [Compound 508] | 450 | 2600 | – | –
CN1N=C(C(=O)Nc2ccc(Oc3cccc(Cl)c3)cn2)CCC1=O [Compound 157, N-(5-(3-chlorophenoxy)pyridin-2-yl)-1-methyl-6-oxo-1,4,5,6-tetrahydropyridazine-3-carboxamide] | 6650 | > 45000 | – | –
